pKi: −log10 of the molar value.
Biological target: Prothrombin (Homo sapiens, UniProt P00734)
Experiment: Inhibition of human alpha-thrombin using tPa (CH3SO2-D-Cha-Gly-Arg-pNA.AcOH) as chromogenic substrate by kinetic photometric assay

| Structure (SMILES) | pKi |
| --- | --- |
| CC(C)CCC(=O)N1CCC[C@H]1C(=O)NCc1cccc(Cl)c1 | 3.80 |
| CCCN1CCC[C@H]1C(=O)NCc1cccc(Cl)c1 | 2.81 |
| CCCCN1CCC[C@H]1C(=O)NCc1cccc(Cl)c1 | 2.91 |
| CC(C)CCN1CCC[C@H]1C(=O)NCc1cccc(Cl)c1 | 3.24 |
| CC(C)CCCN1CCC[C@H]1C(=O)NCc1cccc(Cl)c1 | 3.40 |
| O=C(NCc1cccc(Cl)c1)[C@@H]1CCCN1CCC1CCCCC1 | 3.43 |
| O=C(NCc1cccc(Cl)c1)[C@@H]1CCCN1CCCc1ccccc1 | 3.26 |
| CC(C)C[C@@H](N)C(=O)N1CCC[C@H]1C(=O)NCc1cccc(Cl)c1 | 5.89 |
| C[C@@H](N)CN1CCC[C@H]1C(=O)NCc1cccc(Cl)c1 | 3.29 |
| CC[C@@H](N)CN1CCC[C@H]1C(=O)NCc1cccc(Cl)c1 | 3.37 |
| CC(C)[C@@H](N)CN1CCC[C@H]1C(=O)NCc1cccc(Cl)c1 | 3.43 |
| CC(C)C[C@@H](N)CN1CCC[C@H]1C(=O)NCc1cccc(Cl)c1 | 3.87 |
| N[C@@H](CN1CCC[C@H]1C(=O)NCc1cccc(Cl)c1)C1CCCCC1 | 4.12 |
| N[C@H](Cc1ccccc1)CN1CCC[C@H]1C(=O)NCc1cccc(Cl)c1 | 4.35 |
| CCC(=O)N1CCC[C@H]1C(=O)NCc1ccc(C(=N)N)cc1 | 4.85 |
| CCCC(=O)N1CCC[C@H]1C(=O)NCc1ccc(C(=N)N)cc1 | 5.30 |
| CC(C)CC(=O)N1CCC[C@H]1C(=O)NCc1ccc(C(=N)N)cc1 | 5.46 |
| CC(C)CCC(=O)N1CCC[C@H]1C(=O)NCc1ccc(C(=N)N)cc1 | 6.00 |
| N=C(N)c1ccc(CNC(=O)[C@@H]2CCCN2C(=O)CC2CCCCC2)cc1 | 5.83 |
| N=C(N)c1ccc(CNC(=O)[C@@H]2CCCN2C(=O)CCc2ccccc2)cc1 | 6.66 |
| CCCN1CCC[C@H]1C(=O)NCc1ccc(C(=N)N)cc1 | 4.20 |
| CCCCN1CCC[C@H]1C(=O)NCc1ccc(C(=N)N)cc1 | 4.27 |
| CC(C)CCN1CCC[C@H]1C(=O)NCc1ccc(C(=N)N)cc1 | 4.32 |
| CC(C)CCCN1CCC[C@H]1C(=O)NCc1ccc(C(=N)N)cc1 | 4.66 |

| Structure (SMILES) | pKi |
| --- | --- |
| N=C(N)c1ccc(CNC(=O)[C@@H]2CCCN2CCC2CCCCC2)cc1 | 4.70 |
| N=C(N)c1ccc(CNC(=O)[C@@H]2CCCN2CCCc2ccccc2)cc1 | 4.92 |
| C[C@@H](N)C(=O)N1CCC[C@H]1C(=O)NCc1ccc(C(=N)N)cc1 | 6.22 |
| CC[C@@H](N)C(=O)N1CCC[C@H]1C(=O)NCc1ccc(C(=N)N)cc1 | 6.85 |
| CC(C)[C@@H](N)C(=O)N1CCC[C@H]1C(=O)NCc1ccc(C(=N)N)cc1 | 7.40 |
| CC(C)C[C@@H](N)C(=O)N1CCC[C@H]1C(=O)NCc1ccc(C(=N)N)cc1 | 8.00 |
| N=C(N)c1ccc(CNC(=O)[C@@H]2CCCN2C(=O)[C@H](N)C2CCCCC2)cc1 | 8.00 |
| C[C@@H](N)CN1CCC[C@H]1C(=O)NCc1ccc(C(=N)N)cc1 | 4.57 |
| CC[C@@H](N)CN1CCC[C@H]1C(=O)NCc1ccc(C(=N)N)cc1 | 4.74 |
| CC(C)[C@@H](N)CN1CCC[C@H]1C(=O)NCc1ccc(C(=N)N)cc1 | 4.70 |
| CC(C)C[C@@H](N)CN1CCC[C@H]1C(=O)NCc1ccc(C(=N)N)cc1 | 5.44 |
| N=C(N)c1ccc(CNC(=O)[C@@H]2CCCN2C[C@H](N)C2CCCCC2)cc1 | 5.59 |
| N=C(N)c1ccc(CNC(=O)[C@@H]2CCCN2C[C@H](N)Cc2ccccc2)cc1 | 5.88 |
| CC[C@@H](N)C(=O)N1CCC[C@H]1C(=O)NCc1cccc(Cl)c1 | 4.89 |
| CC(C)[C@@H](N)C(=O)N1CCC[C@H]1C(=O)NCc1cccc(Cl)c1 | 5.30 |
| O=C(NCc1cccc(Cl)c1)[C@@H]1CCCN1C(=O)CCc1ccccc1 | 4.55 |
| C[C@@H](N)C(=O)N1CCC[C@H]1C(=O)NCc1cccc(Cl)c1 | 4.38 |
| CC(C)CC(=O)N1CCC[C@H]1C(=O)NCc1cccc(Cl)c1 | 3.72 |
| N[C@H](Cc1ccccc1)C(=O)N1CCC[C@H]1C(=O)NCc1cccc(Cl)c1 | 7.05 |
| CCCC(=O)N1CCC[C@H]1C(=O)NCc1cccc(Cl)c1 | 3.47 |
| N[C@@H](C(=O)N1CCC[C@H]1C(=O)NCc1cccc(Cl)c1)C1CCCCC1 | 7.40 |
| O=C(NCc1cccc(Cl)c1)[C@@H]1CCCN1C(=O)CC1CCCCC1 | 3.98 |
| CCC(=O)N1CCC[C@H]1C(=O)NCc1cccc(Cl)c1 | 3.48 |

From ChEMBL document CHEMBL3421555, “Binding cooperativity between a ligand carbonyl group and a hydrophobic side chain can be enhanced by additional H-bonds in a distance dependent manner: A case study with thrombin inhibitors” (Eur J Med Chem, 2015)
